Experimental data as given in US6924299B2, “Methods and compositions useful in enhancing oxygen delivery to cells” (University of Kentucky Research Foundation, priority 2000, dated 2005).

Columns and labels:
skin of human volunteers [1] = experiment: Visual observation of vasodilation (blushing) after topical application of lotion to forearm; type: in vivo; settings: for Vasodilation at 0.1%: 0.1% in skin lotion; for Vasodilation at 0.1% / Vasodilation at 1.0%: anterior forearm, visual blushing; for Vasodilation at 1.0%: 1.0% in skin lotion
Procedure: This example details the first of two sets of experiments designed to determine the vasodilation effect of alkyl niacin esters. Formulations were prepared by combining the alkyl esters referred to supra in a skin lotion, at 0.1% and 1.0% concentrations. The lotions were applied topically to the skin of human volunteers on the anterior surface of a forearm. Vasodilation was observed visually, i.e., by observing blushing at the site of application, or lack thereof. Both onset and duration of vasodilation were measured.

skin of human volunteers [2] = experiment: Skin oxygen / CO2 content by transcutaneous monitor after topical application; type: in vivo
Procedure: To examine this issue, the oxygen content of skin to which the octyl ester discussed supra was determined directly, using a transcutaneous oxygen monitor. The 1% formulation of the octyl ester was applied to skin for 30 minutes. After this thirty minute period, the skin was cleaned with soap and water, wiped with an alcohol swab, and a drop of deionized water was placed on the sensor surface before its attachment to the anterior surface of the volunteers' forearms. The transcutaneous values were recorded constantly, and stored by the instrument. The monitor measures relative oxygen content, because the temperature at which the monitor operates does impact the oxygen permeability of the stratum corneum. See, e.g., Martin, Resp. […] The sensor was calibrated at 4 hour intervals, or whenever the sensor temperature was changed.
The monitor was operated at a temperature of 40° C. Values are given for both a control, and the formulation described herein.
In a follow-up experiment, the monitor was operated at 38° C., and both O2 and CO2 were measured, with a combined transcutaneous oxygen and CO2 monitor. […] The control is represented by the dotted line.
Parallel experiments were carried out using 0.1% octyl niacin ester lotion, and a lotion containing octyl niacin ester (0.1%), and 0.1% butyl benzoate.
Oxygen content was measured in the same way as is described, supra, or using other techniques known to the art.

[3] = monitor at 38° C., versus control, FIG. 3

## CCCCOC(=O)c1cccnc1 [4 carbons]
Skin of human volunteers [1]
  Vasodilation at 0.1%: Yes
  Vasodilation at 1.0%: Yes

## CCCCOC(=O)c1ccccc1 [Butyl benzoate, reference compound]
Skin of human volunteers [2]; lotion with 0.1% octyl niacin ester plus 0.1% butyl benzoate versus 0.1% octyl niacin ester lotion alone, FIG. 4
  Effect on the increase in skin oxygen content caused by octyl niacin ester: blocked the increase in oxygen content

## CCCCCCCCCCCCCCCCOC(=O)c1cccnc1 [16 carbons]
Skin of human volunteers [1]
  Vasodilation at 0.1%: No
  Vasodilation at 1.0%: No

## CCCCCCCCCCCCCOC(=O)c1cccnc1 [13 carbons]
Skin of human volunteers [1]
  Vasodilation at 0.1%: No
  Vasodilation at 1.0%: No

## CCCCCCCCCCCCOC(=O)c1cccnc1 [12 carbons]
Skin of human volunteers [1]
  Vasodilation at 0.1%: No
  Vasodilation at 1.0%: No

## CCCCCCCCOC(=O)c1cccnc1 [8 carbons, Octyl niacin]
Skin of human volunteers [2]; 1% formulation applied 30 minutes, monitor at 40° C., versus control, FIG. 2
  Skin oxygen content (transcutaneous oxygen monitor): sustained increase in skin oxygen
Skin of human volunteers [2]; [3]
  Skin CO2 content (combined transcutaneous oxygen and CO2 monitor): decrease in CO2 content
  Skin oxygen content (combined transcutaneous oxygen and CO2 monitor): sustained increase in skin oxygen content
Skin of human volunteers [1]
  Vasodilation at 0.1%: Yes
  Vasodilation at 1.0%: Yes
Skin of human volunteers [1]; 0.1% lotion, visual determination, listed as C8
  Vasodilation Effect at 0.1%: Duration: longest effect

## CCCCCCCCCCCCCCCOC(=O)c1cccnc1 [15 carbons]
Skin of human volunteers [1]
  Vasodilation at 0.1%: No
  Vasodilation at 1.0%: No

## CCCCCCCCCCCOC(=O)c1cccnc1 [11 carbons]
Skin of human volunteers [1]
  Vasodilation at 0.1%: No
  Vasodilation at 1.0%: Slight

## CCCCCCOC(=O)c1cccnc1 [6 carbons, Hexyl niacin]
Skin of human volunteers [1]
  Vasodilation at 0.1%: Yes
  Vasodilation at 1.0%: Yes

## COC(=O)c1cccnc1 [1 carbon]
Skin of human volunteers [1]
  Vasodilation at 0.1%: Yes
  Vasodilation at 1.0%: Yes

## CCCCCCCCCCCCCCCCCCOC(=O)c1cccnc1 [18 carbons]
Skin of human volunteers [1]
  Vasodilation at 0.1%: No
  Vasodilation at 1.0%: No

## CCCCCCCCCCCCCCOC(=O)c1cccnc1 [14 carbons]
Skin of human volunteers [1]
  Vasodilation at 0.1%: No
  Vasodilation at 1.0%: No

## CCCCCCCCCOC(=O)c1cccnc1 [9 carbons]
Skin of human volunteers [1]
  Vasodilation at 0.1%: No
  Vasodilation at 1.0%: Yes
Skin of human volunteers [1]; listed as C9
  Vasodilation at 1.0%: caused vasodilation

## CCOC(=O)c1cccnc1 [2 carbons, Ethyl niacin]
Skin of human volunteers [1]
  Vasodilation at 0.1%: Yes
  Vasodilation at 1.0%: Yes
Skin of human volunteers [1]; 0.1% lotion, visual determination
  Vasodilation Effect at 0.1%: Onset: 5 to 10 min

## CCCCCCCCCCOC(=O)c1cccnc1 [10 carbons]
Skin of human volunteers [1]
  Vasodilation at 0.1%: No
  Vasodilation at 1.0%: Yes
Skin of human volunteers [1]; listed as C10
  Vasodilation at 1.0%: caused vasodilation
